Test results as given in US20240400698A1, “ANTI-CHEMOKIN LIKE RECEPTOR 1 ANTIBODIES AND THEIR THERAPEUTIC APPLICATIONS” (OSE IMMUNOTHERAPEUTICS, priority 2018, published 2024).

Legend:
[1] = system: mice, peritonitis induced by Zymosan A; assay: Zymosan A peritonitis model (sepsis); format: in vivo; details: preventive injection, vs isotype control
Procedure: FIG. 7. […] Preventive injection of anti-CMKLR1 was performed before Zymosan A injection (1 mg per mouse in 1 mL): RvE1 (1 μg per mouse) (•), 2G1 antibody (10 μg per mouse) ( ) or isotype control antibody (x). A. PMN numbered during the first 50 hours after Zymosan A injection. B. Macrophages numbered during the first 50 hours after Zymosan A injection. C. Resolution index.
Common peritonitis is induced by intraperitoneal injection of Zymosan A® (1 mg per mouse in 1 mL). Preventive injection of anti-CMKLR1 was performed 5 minutes before Zymosan A injection: RvE1 (1 μg per mouse), 2G1 antibody (10 μg per mouse). Murine peritoneal polymorphonuclear neutrophil (PMN) and macrophages were collected at 2-4-8-16-24 and 48 h after Zymosan A injection and numbered by flow cytometry analysis to determinate the resolution index (Bannenberg et al., 2005).

[2] = system: C57BI/6 male mice, colitis induced by TNBS; assay: Acute inflammatory colitis model induced by TNBS; format: in vivo; details: FIG. 3, 2G1 10 μg, RvE1 1 μg per mouse i.p.
Procedure: FIG. 3. […] Mice received 200 μL of the haptenating agent TNBS at 5% in 50% ethanol on day 0 and then were injected with isotype control hIgG1 (10 μg per mouse) (x), RvE1 (1 μg per mouse) daily (•), or 2G1 antibody (10 μg per mouse) three times ( ) for 5 days, or non-treated (wild type animals) (▾). Mice were sacrificed colon length was measured in each condition.
Colitis was induced in 8-10 weeks-old-C57BI/6 male mice by intrarectal injection of 200 μL of the haptenating agent TNBS at 5% in 50% ethanol on day 0. Treatments were injected intra-peritoneally; RvE1 (1 μg per mouse) daily for three days, or 2G1 antibody (10 μg per mouse) twice for 3 days. Colitis follow-up consisting of body weight and stool score (0: normal stool; 4: blood in stool) parameters were performed daily (data not represented). When mice are euthanized, colon length representing the pathology severity was measured.

[3] = system: male C57BI/6 mice, Aldara-induced psoriasis; assay: Imiquimod (Aldara)-induced psoriasis-like skin inflammation; format: in vivo; details: 1 μg per mouse i.p. daily, vs control molecule
Procedure: FIG. 6. Effect of Resolvin E1 on an autoimmune disease such as mice psoriasis model. Aldara treated mice for 6 consecutive days were injected intra-peritoneally with: RvE1 (1 μg) (•) and PBS daily, and isotype control antibody (10 μg) (x) at day 0, 2 and 4. A. Ear thicknesses and B. skin thicknesses were measured daily until the recovery.
Aldara@ cream which is known to induce psoriasis in mice was used on male C57BI/6 mice (8-10-week old). Mice received a daily topical dose of Aldara on the shaved back and the left ear for 6 consecutive days. Treatments were injected intra-peritoneally: RvE1 (1 μg per mouse) and PBS daily. Ear (FIG. 6A) and back (FIG. 6B) thicknesses were measured daily until the recovery.

Mice dendritic cells = assay: Maturation and differentiation of mice bone marrow derived dendritic cells, activation markers and viability by FACS; format: cell-based
Procedure: FIG. 1. Effect of the anti-CMKLR1 variants 1G1, 2G1, 3G1 and 4G1 chimeric antibodies on the DCs maturation and differentiation. Mice dendritic cells were incubated during maturation phase (24 h or 48 h) followed by a differentiation phase with excipient or RvE1 or anti-CMKLR1 antibodies variants (mutations on positions 1 and 2 of SEQ ID No. 8, corresponding to the VH-CDR3: 1G1 (LL), 2G1 (LI), 3G1 (IL) or 4G1 (II) or isotype controls (hIgG1 or mIgG)). Cells were then stained for FACS analysis with cell marker antibodies: A. CD80-PE; B. CD86-FITC; C. CD103-PerCPCy5.5; D. I/Ab-APC. Mean of Fluorescence was determined in each condition. E and F represent the viability of the cells measured by FACS using LIVE/DEAD® kit from Life Technologies in each condition after 24 or 48 hours of maturation respectively.
FIG. 17. Study of the myeloid cell activation markers after CMKLR1 pathway activation. Dendritic cells incubated in excipient, RvE1, 2G1 or isotype control (hIgG1) were then stained for FACS analysis with marker antibodies: A. CD80-PE. B. CD86-FITC. C. CD103-PerCPCy5.5. D. CD40-PeCy7. E. I/Ab-APC. Mean of Fluorescence was determined in each condition.
Bone marrow cells were harvested and cultured in RPMI medium supplemented with 10% FBS, glutamine and antibiotics and the dendritic cell differentiation was induced by GM-CSF at 20 ng/ml for 7 days. Then, immature dendritic cells (iDC) were collected and cultured for 24 hours with LPS (100 ng/ml) to induce the maturation from iDC to mDC. Treatments were added during differentiation and maturation at 2 μg/ml.
Dendritic cells were resuspended in PBS-FBS-EDTA and incubated with live and dead (LIVE/DEAD® Fixable Dead Cell Stains Yellow-Life Technologies) for 30 minutes on ice. Staining of CD11c-BV711, CD11b-APCCy7, I/Ab-APC, CD103-PerCPCy5.5, CCR7-V450, CD40-PeCy7, CD80-PE, CD86-FITC (all provided by BD Pharmingen) were performed.

[4] = system: mice M1 or M2 macrophages; assay: Cytokine secretion by mice M1 or M2 macrophages (ELISA), FIG. 15; format: cell-based; details: FIG. 15; IL10, CCL17, IL12p40
Procedure: FIG. 15. Study of the inflammatory cytokine secretion by human macrophages during CMKLR1 activation. After differentiation of human macrophages M1 or M2, cells were incubated in presence of medium, isotype control, anti-CMKLR1 antibodies (H6 and BZ194), C15 peptides, 2G1 anti-CMKLR1 antibody or RvE1. Secretion of IL10, CCL17 and IL12p40 were assessed by ELISA. Cytokines secretion is measured in the supernatant by using an ELISA kit from BD. Supernatant were diluted at 1/10 for IL10 cytokines, 1/50 for CCL17 cytokines and 1/100 for IL12p40 cytokines. A. IL10 cytokine secretion by M2 cells. B. CCL17 cytokine secretion by M2 cells. C. represents IL 12 cytokine secretion by M1 cells.
Bone marrow cells were harvested and cultured in the RPMI medium supplemented with 10% FBS, glutamine and antibiotics containing macrophages colony-stimulating factor (M-CSF) at 100 ng/ml for 5 days inducing the macrophages differentiation. The macrophages were harvested and cultured for 2 days with either IFNg (20 ng/ml) and LPS (100 ng/ml) inducing the M1 polarization or with IL-4 (20 ng/ml) inducing the M2 polarization. Treatments were added during macrophage polarization at 2 μg/ml.
After differentiation of mice M1 or M2 as explain above, cells were incubated in presence of medium, isotype control, anti-CMKLR1 antibodies: clones H6 and BZ194, C15 peptides, 2G1 the anti-CMKLR1 antibody of interest or RvE1 were used. Then the secretion of IL10, CCL17 and IL12p40 was assessed by ELISA. Cytokines secretion was measured in the supernatant using an ELISA kit from BD. Supernatants were diluted at 1/10 for IL10 cytokines, 1/50 for CCL17 cytokines and 1/100 for IL12p40 cytokines.
Cytokines secretion was detected by ELISA according to the BD manufacturer instructions. Briefly, supernatants were diluted in the appropriate buffer and incubated for 2 hours after overnight coating with capture antibody and saturation. […] TMB supplied by BD Bioscience was used as substrate and colorimetric reaction was read with TECAN.

Row | Molecule | PMNs number ([1]; FIG. 7A) | macrophages number ([1]; FIG. 7B) | resolution index ([1]; FIG. 7C) | colon length [2] | thickness of the ears ([3]; FIG. 6A) | thickness of the skin (back) ([3]; FIG. 6B) | expression of CD80, CD86, CD103, CD40 and IAb (DC activation markers) (Mice dendritic cells; FIG. 17, FACS, compared to the excipient or isotype control) | inflammatory cytokines secreted by M1 or M2 macrophages, result compared with that of 2G1 [4] | DCs activation and/or maturation towards a pro-inflammatory pathway (Mice dendritic cells; FIG. 1, mice dendritic cells, maturation 24 h or 48 h) | viability of cells (Mice dendritic cells; FIGS. 1E and 1F, LIVE/DEAD kit, after 24 or 48 hours of maturation, compared with other antibodies, C7 or Resolvin E1)
1 | CC[C@@H](O)/C=C/C=C\C[C@@H](O)/C=C/C=C/C=C\[C@@H](O)CCCC(=O)O [RvE1, Resolvin E1, reference compound] | slightly less | slightly less | better resolution index | the same as normal animal (wt) | lower thickness | lower thickness | strong decrease | different | – | –
2 | 1G1: anti-CMKLR1 chimeric antibody variant, LL on positions 1 and 2 of VH-CDR3 (SEQ ID No. 8) (antibody, V domains shown) VH: EVQLVASGGGLVQPGGSLKLSCAASGFTFSSYGMSWVRQTPDRRLELVATINRYGGSTYYPDSVKGRFTISRDNAKNTLYLQMSSLKSEDTAMYYCPRLLYYGNEGDSWGQGTTLTVSS VL: QIVLTQSPAIMSASPGEKVTMTCSASSSVSFMHWYQQKSGTSPKRWIYDTTKLTSGVPARFSGSGSGTFYSLTISSMEAEDAATYYCQQWNSKPPLTFGPGTKLELKR | – | – | – | – | – | – | – | – | inhibit DCs activation and/or maturation in a stronger manner than other synthetized antibodies (3G1 and 4G1) | enhanced
